This assay has as its target human NaV1.6 (hNaV1.6) (Homo sapiens (Human), UniProt Q9UQD0). The assay can be described thus: INaL inhibition at hNaV1.6, PatchXpress electrophysiology. It counts as cell-based. As to the method: Functional characterization of exemplary compounds to modulate INaL expressed by the Nay 1.6 voltage-gated sodium channel was accomplished using the PatchXpress™ high throughput electrophysiology platform (Molecular Devices, Sunnyvale, Calif.). HEK-293 cells expressing recombinant, human NaV1.6 (hNaV1.6) were grown in DMEM/high-glucose Dulbecco's modified, 10% FBS, 2 mM sodium pyruvate, 10 mM HEPES and 400 μg/mL G418. Cells were grown to 50%-80% confluency prior to harvesting. […] The onboard liquid handling facility of the PatchXpress was used for dispensing cells and applying test compounds. Nay late currents were evoked by the application of 300 nM ATX-II. […] INaL amplitude and stability were determined by analyzing the mean current amplitude over the final 20 ms of the test pulse. […] Percent steady-state inhibition of INaL was calculated as: [(INaL_compound)/(INaL_control)]*100, where INaL_compound and INaL_control represent INaL recorded in the presence or absence of compound, respectively.

[1] abbreviates: HEK293, 1 μM, HEK-293 cells expressing hNaV1.6, late current evoked by 300 nM ATX-II, read-out: INaL v1.6 (1 μM, % Inhibition).

The values below come from US11629146B2, “Substituted [1,2,4]triazolo[4,3-a]pyrazines as modulators of sodium channel activity” (Praxis Precision Medicines, Inc., priority 2016, dated 2023).

Where two headings read alike, the source gives them in different places. Where only a bound is given, the exact number is not on record here.

human NaV1.6 (hNaV1.6), sequence (Q9UQD0 whole entry): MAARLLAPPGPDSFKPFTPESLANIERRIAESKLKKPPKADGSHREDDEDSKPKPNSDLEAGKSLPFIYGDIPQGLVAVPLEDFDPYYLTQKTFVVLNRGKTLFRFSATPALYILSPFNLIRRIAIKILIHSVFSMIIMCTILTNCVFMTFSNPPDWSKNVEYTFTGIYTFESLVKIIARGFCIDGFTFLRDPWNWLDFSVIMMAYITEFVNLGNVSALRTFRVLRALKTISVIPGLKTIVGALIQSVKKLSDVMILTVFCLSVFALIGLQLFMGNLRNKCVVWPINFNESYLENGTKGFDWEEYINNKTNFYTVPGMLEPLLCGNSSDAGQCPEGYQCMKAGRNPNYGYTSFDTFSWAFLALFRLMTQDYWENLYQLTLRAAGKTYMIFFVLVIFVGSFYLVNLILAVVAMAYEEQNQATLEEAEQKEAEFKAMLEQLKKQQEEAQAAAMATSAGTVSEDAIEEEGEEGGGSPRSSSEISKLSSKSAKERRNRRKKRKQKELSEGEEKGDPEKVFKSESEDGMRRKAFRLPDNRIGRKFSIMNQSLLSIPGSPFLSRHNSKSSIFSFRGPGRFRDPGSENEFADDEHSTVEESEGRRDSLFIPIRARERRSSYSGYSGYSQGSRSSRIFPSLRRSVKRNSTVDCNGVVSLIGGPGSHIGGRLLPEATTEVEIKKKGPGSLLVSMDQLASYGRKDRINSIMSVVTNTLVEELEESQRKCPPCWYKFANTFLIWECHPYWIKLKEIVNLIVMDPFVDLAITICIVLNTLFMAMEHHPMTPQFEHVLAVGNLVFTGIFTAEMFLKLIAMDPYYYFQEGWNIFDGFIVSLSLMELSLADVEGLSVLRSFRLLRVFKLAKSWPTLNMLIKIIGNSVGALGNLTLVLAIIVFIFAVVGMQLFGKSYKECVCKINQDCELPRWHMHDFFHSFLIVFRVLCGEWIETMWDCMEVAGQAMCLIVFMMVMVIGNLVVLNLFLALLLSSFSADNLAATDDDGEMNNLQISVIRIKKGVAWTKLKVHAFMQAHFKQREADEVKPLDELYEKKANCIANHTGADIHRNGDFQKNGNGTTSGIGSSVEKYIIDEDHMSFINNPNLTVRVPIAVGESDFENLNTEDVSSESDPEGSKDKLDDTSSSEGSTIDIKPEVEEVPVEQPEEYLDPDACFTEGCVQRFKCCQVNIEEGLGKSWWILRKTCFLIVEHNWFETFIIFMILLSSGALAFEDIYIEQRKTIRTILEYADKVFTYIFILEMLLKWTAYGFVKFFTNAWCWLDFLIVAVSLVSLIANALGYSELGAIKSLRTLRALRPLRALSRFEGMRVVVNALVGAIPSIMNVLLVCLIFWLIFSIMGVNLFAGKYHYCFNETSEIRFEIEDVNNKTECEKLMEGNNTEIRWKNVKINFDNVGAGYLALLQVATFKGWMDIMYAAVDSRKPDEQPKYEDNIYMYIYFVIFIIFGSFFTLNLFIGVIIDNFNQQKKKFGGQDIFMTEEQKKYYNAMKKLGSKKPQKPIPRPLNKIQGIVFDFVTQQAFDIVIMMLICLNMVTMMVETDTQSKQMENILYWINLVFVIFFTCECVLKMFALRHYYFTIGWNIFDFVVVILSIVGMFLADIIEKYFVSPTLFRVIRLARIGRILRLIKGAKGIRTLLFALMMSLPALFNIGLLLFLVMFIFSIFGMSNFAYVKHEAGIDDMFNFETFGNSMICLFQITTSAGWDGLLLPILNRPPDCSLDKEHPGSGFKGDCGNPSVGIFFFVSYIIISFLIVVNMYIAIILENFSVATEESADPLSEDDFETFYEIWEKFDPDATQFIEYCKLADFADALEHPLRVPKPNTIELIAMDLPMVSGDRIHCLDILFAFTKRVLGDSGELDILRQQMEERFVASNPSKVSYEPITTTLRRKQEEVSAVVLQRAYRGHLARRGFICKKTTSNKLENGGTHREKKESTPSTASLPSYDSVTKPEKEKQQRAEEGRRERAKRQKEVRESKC

Broadly, the inhibition is the drop in the measured response relative to a control, in per cent. As for `CC(Oc1ncc(-c2cn3c(C(F)(F)F)nnc3cn2)cc1F)C(F)(F)F` (stereo not drawn) [Compound 133], the inhibition at 1 µM under setting [1] was over 70%.
Consider `C[C@@H](Oc1ncc(-c2cn3c(C(F)F)nnc3cn2)cc1F)C(F)(F)F` [Compound 134], for which the “INaL v1.6 (1 μM, % Inhibition)” value (1 μM, HEK-293 cells expressing hNaV1.6, late current evoked by 300 nM ATX-II) is listed as “C (inhibition of greater than 70%)”.
On to `COCc1cc(OC(F)(F)F)ccc1-c1ccc2nnc(C(F)F)n2n1` [Compound 137], for which the inhibition at 1 µM under setting [1] was 30 to 70%.
On the same count and under the same terms, the result for `FC(F)Oc1ccc(-c2cn3c(C(F)F)nnc3cn2)cc1` [Compound 138] reads under 30%; that for `Cc1cc(-c2ccc(OC(F)(F)F)cc2)nn2c(C(F)(F)F)nnc12` [Compound 139, 8-methyl-6-[4-(trifluoromethoxy)phenyl]-3-(trifluoromethyl)-[1,2,4]triazolo[4,3-b]pyridazine], under 30%; that for `Cc1cc2nnc(C(F)(F)F)n2nc1-c1ccc(OC(F)(F)F)cc1` [Compound 140, 7-methyl-6-[4-(trifluoromethoxy)phenyl]-3-(trifluoromethyl)-[1,2,4]triazolo[4,3-b]pyridazine], 30 to 70%.
On the same count and under the same terms, the result for `COCc1cc(C(F)(F)F)ccc1-c1cn2c(C(F)F)nnc2cn1` [Compound 141] reads 30 to 70%.
Same read-out and setting: the result for `COCc1cc(OC(F)(F)F)ccc1-c1cn2c(C(F)F)nnc2cn1` [Compound 142] reads over 70%; that for `COCc1cc2nnc(C(F)(F)F)n2nc1-c1ccc(OC(F)(F)F)cc1` [Compound 143], under 30%; that for `COCc1cc(-c2cn3c(C(F)F)nnc3cn2)ccc1OC(F)(F)F` [Compound 144], under 30%.
As for `FC(F)(F)Oc1ccc(-c2cn3c(C4CCOCC4)nnc3cn2)cc1` [Compound 145], the inhibition at 1 µM (HEK293, read-out: INaL v1.6 (1 μM, % Inhibition)) is under 30%.
Turning to `COCc1cc(-c2ccc3nnc(C(F)F)n3n2)ccc1OC(F)(F)F` [Compound 146], under setting [1], the inhibition at 1 µM was 30 to 70%.
The same measure, in the same setting: the result for `COc1nnc2cnc(-c3ccc(OC(F)(F)F)cc3)cn12` [Compound 148] reads under 30%; that for `FC(F)(F)OCc1ccc(-c2cn3c(C(F)(F)F)nnc3cn2)cc1` [Compound 149], over 70%.
The same measure, in the same setting: the result for `FC(F)(F)COc1nnc2cnc(-c3ccc(OC(F)(F)F)cc3)cn12` [Compound 150] reads under 30%; that for `FC(F)(F)c1nnc2cnc(-c3ccc([C@H]4CC4(F)F)cc3)cn12` [Compound 151, 6-[4-[(1R)-2,2-difluorocyclopropyl]phenyl]-3-(trifluoromethyl)-[1,2,4]triazolo[4,3-a]pyrazine], 30 to 70%; that for `FC(F)(F)c1nnc2cnc(-c3ccc([C@@H]4CC4(F)F)cc3)cn12` [Compound 152, 6-[4-[(1S)-2,2-difluorocyclopropyl]phenyl]-3-(trifluoromethyl)-[1,2,4]triazolo[4,3-a]pyrazine], over 70%.
Same read-out and setting: next, `COCc1cc(-c2cn3c(C(F)(F)F)nnc3cn2)ccc1C(F)(F)F` [Compound 157]: 30 to 70%.
With `COCc1cc(-c2ccc3nnc(C(F)(F)F)n3n2)ccc1C(F)(F)F` [Compound 158], under setting [1], the inhibition at 1 µM is 30 to 70%.
On the same count and under the same terms, the result for `COCc1cc(-c2ccc3nnc(C(F)F)n3n2)ccc1C(F)(F)F` [Compound 159] reads 30 to 70%; that for `FC(F)(F)Oc1ccc(-c2cn3c([C@H]4CCOC4)nnc3cn2)cc1` [Compound 160, 3-[(3R)-tetrahydrofuran-3-yl]-6-[4-(trifluoromethoxy)phenyl]-[1,2,4]triazolo[4,3-a]pyrazine], under 30%; that for `FC(F)(F)Oc1ccc(-c2cn3c([C@@H]4CCOC4)nnc3cn2)cc1` [Compound 161, 3-[(3S)-tetrahydrofuran-3-yl]-6-[4-(trifluoromethoxy)phenyl]-[1,2,4]triazolo[4,3-a]pyrazine], under 30%.
On to `FC(F)(F)Oc1ccc(-c2nn3c(C(F)(F)F)nnc3cc2Cl)cc1` [Compound 162, 7-chloro-6-[4-(trifluoromethoxy)phenyl]-3-(trifluoromethyl)-[1,2,4]triazolo[4,3-b]pyridazine], for which the inhibition at 1 µM under setting [1] is over 70%.
As to `COCc1cc(-c2ccc(OC(F)(F)F)cc2)nn2c(C(F)(F)F)nnc12` [Compound 163], under setting [1], the inhibition at 1 µM is under 30%.
On to `FC(F)c1nnc2ccc(-c3ccc([C@H]4CC4(F)F)cc3)nn12` [Compound 164, 6-[4-[(1R)-2,2-difluorocyclopropyl]phenyl]-3-(difluoromethyl)-[1,2,4]triazolo[4,3-b]pyridazine], for which the inhibition at 1 µM under setting [1] is 30 to 70%.
On the same count and under the same terms, the result for `FC(F)c1nnc2ccc(-c3ccc([C@@H]4CC4(F)F)cc3)nn12` [Compound 165, 6-[4-[(1S)-2,2-difluorocyclopropyl]phenyl]-3-(difluoromethyl)-[1,2,4]triazolo[4,3-b]pyridazine] reads over 70%; that for `FC(F)c1nnc2cnc(-c3ccc([C@H]4CC4(F)F)cc3)cn12` [Compound 166, 6-[4-[(1R)-2,2-difluorocyclopropyl]phenyl]-3-(difluoromethyl)-[1,2,4]triazolo[4,3-a]pyrazine], 30 to 70%; that for `FC(F)c1nnc2cnc(-c3ccc([C@@H]4CC4(F)F)cc3)cn12` [Compound 167, 6-[4-[(1S)-2,2-difluorocyclopropyl]phenyl]-3-(difluoromethyl)-[1,2,4]triazolo[4,3-a]pyrazine], 30 to 70%.
For the compound `Cc1nc(-c2ccc(OC(F)(F)F)cc2)cn2c(C(F)(F)F)nnc12` [Compound 168, 8-methyl-6-[4-(trifluoromethoxy)phenyl]-3-(trifluoromethyl)-[1.2.4]triazolo[4,3-a]pyrazine], under setting [1], the inhibition at 1 µM was 30 to 70%.
For `OCc1ccc(-c2ccc3nnc(C(F)F)n3n2)cc1` [Compound 169, [4-[3-(difluoromethyl)-[1,2,4]triazolo[4,3-b]pyridazin-6-yl]phenyl]methanol], under setting [1], the inhibition at 1 µM was under 30%.
On the same count and under the same terms, next, `COCc1ccc(-c2cn3c(C(F)F)nnc3cn2)cc1` [Compound 170]: under 30%.
`COCc1ccc(-c2ccc3nnc(C(F)F)n3n2)cc1` [Compound 171]: under setting [1], the inhibition at 1 µM is under 30%.
Consider `OCc1ccc(-c2cn3c(C(F)F)nnc3cn2)cc1` [Compound 172, [4-[3-(difluoromethyl)-[1,2,4]triazolo[4,3-a]pyrazin-6-yl]phenyl]methanol], for which the inhibition at 1 µM under setting [1] was under 30%.
The same measure, in the same setting: the result for `COCc1cc(-c2cn3c(C(F)(F)F)nnc3cn2)ccc1OC(F)(F)F` [Compound 173] reads 30 to 70%.
Still for that read-out and setting: next, `Cc1cc(OC2CC(F)(F)C2)ccc1-c1cn2c(C(F)(F)F)nnc2cn1` [Compound 174]: 30 to 70%.
On the same count and under the same terms, the result for `Fc1ccc(-c2nnc3cnc(-c4cnc(OCC(F)(F)F)c(F)c4)cn23)cc1` [Compound 175] reads over 70%; that for `Nc1cc(-c2ccc(OC(F)(F)F)cc2)nn2c(C(F)(F)F)nnc12` [Compound 176, 6-[4-(trifluoromethoxy)phenyl]-3-(trifluoromethyl)-[1,2,4]triazolo[4,3-b]pyridazin-8-amine], under 30%.
Regarding `CC(=O)Nc1cc(-c2ccc(OC(F)(F)F)cc2)nn2c(C(F)(F)F)nnc12` [Compound 177], under setting [1], the inhibition at 1 µM is under 30%.
In the case of `FC(F)c1nnc2cnc(-c3ccc(OC4CC(F)(F)C4)cc3)cn12` [Compound 178], under setting [1], the inhibition at 1 µM was in the range of 30 to 70%.
Consider `FC(F)(F)COc1ccc(-c2cn3c(C(F)(F)F)nnc3cn2)cn1` [Compound 179], for which the inhibition at 1 µM under setting [1] was in the range of 30 to 70%.
Same read-out and setting: next, `COCc1ccc(-c2cn3c(C(F)(F)F)nnc3cn2)cc1` [Compound 180]: under 30%.
On to `O=C(O)c1cc(-c2ccc(OC(F)(F)F)cc2)nn2c(C(F)(F)F)nnc12` [Compound 181, 6-[4-(trifluoromethoxy)phenyl]-3-(trifluoromethyl)-[1,2,4]triazolo[4,3-b]pyridazine-8-carboxylic acid], for which the inhibition at 1 µM under setting [1] is under 30%.
Still for that read-out and setting: the result for `NC(=O)c1cc(-c2ccc(OC(F)(F)F)cc2)nn2c(C(F)(F)F)nnc12` [Compound 183] reads under 30%; that for `O=C(O)c1cc2nnc(C(F)(F)F)n2nc1-c1ccc(OC(F)(F)F)cc1` [Compound 184, 6-[4-(trifluoromethoxy)phenyl]-3-(trifluoromethyl)-[1,2,4]triazolo[4,3-b]pyridazine-7-carboxylic acid], under 30%.
The same measure, in the same setting: the result for `OCc1cc(-c2ccc(OC(F)(F)F)cc2)nn2c(C(F)(F)F)nnc12` [Compound 186] reads under 30%; that for `Fc1cc2nnc(C(F)(F)F)n2nc1-c1ccc(OC(F)(F)F)cc1` [Compound 187], over 70%; that for `Fc1ccc(Oc2nnc3cnc(-c4cnc(OCC(F)(F)F)c(F)c4)cn23)cc1` [Compound 188], 30 to 70%.
The same measure, in the same setting: the result for `FC(F)(F)Oc1ccc(-c2cc(Cl)c3nnc(C(F)(F)F)n3n2)cc1` [Compound 189] reads under 30%; that for `Nc1cc2nnc(C(F)(F)F)n2nc1-c1ccc(OC(F)(F)F)cc1` [Compound 190, 6-[4-(trifluoromethoxy)phenyl]-3-(trifluoromethyl)-[1,2,4]triazolo[4,3-b]pyridazin-7-amine], under 30%; that for `CC(=O)Nc1cc2nnc(C(F)(F)F)n2nc1-c1ccc(OC(F)(F)F)cc1` [Compound 191], under 30%.
For the compound `COCc1nc(-c2ccc(OC(F)(F)F)cc2)cn2c(C(F)(F)F)nnc12` [Compound 192], the inhibition at 1 µM under setting [1] is under 30%.
